Data taken from the NIST ThermoML archive (doi:10.1016/j.jct.2016.10.034).
± gives the expanded uncertainty stated by the source.

Test: xn = mol fraction of the nth substance listed
Settings: 100 kPa, Liquid; for viscosity: Falling or rolling sphere viscometry; for mass density: Vibrating tube method

CC[N+]1(C)CCOCC1.O=C([O-])CO [N-ethyl-N-methylmorpholinium glycolate] + O
Settings | mass density [kg/m3] | viscosity [mPa·s]
298.15 K, x1 = 0.0933 | 1128.6 ± 1.3 | –
298.15 K, x1 = 0.1688 | 1170.3 ± 1 | 21.4 ± 2.2
298.15 K, x1 = 0.2209 | 1186.5 ± 1 | 43.1 ± 4.4
298.15 K, x1 = 0.288 | 1199.7 ± 1.1 | 95.3 ± 10
298.15 K, x1 = 0.3907 | 1211.3 ± 1.1 | 359 ± 43
298.15 K, x1 = 0.4809 | 1217.5 ± 1.2 | 842 ± 110
298.15 K, x1 = 0.5793 | 1221.9 ± 1.4 | 1779 ± 270
298.15 K, x1 = 0.6669 | 1224.6 ± 1.6 | –
298.15 K, x1 = 0.7573 | 1226.9 ± 1.9 | –
298.15 K, x1 = 0.8256 | 1228 ± 2.1 | –
303.15 K, x1 = 0.0933 | 1125.6 ± 1 | –
303.15 K, x1 = 0.1688 | 1167 ± 1 | 17 ± 1.7
303.15 K, x1 = 0.2209 | 1183.1 ± 1 | 32.9 ± 3.3
303.15 K, x1 = 0.288 | 1196.3 ± 1.1 | 69.7 ± 7.1
303.15 K, x1 = 0.3907 | 1207.9 ± 1.1 | 224 ± 25
303.15 K, x1 = 0.4809 | 1214.1 ± 1.2 | 494 ± 61
303.15 K, x1 = 0.5793 | 1218.5 ± 1.4 | 1005 ± 140
303.15 K, x1 = 0.6669 | 1221.2 ± 1.6 | 1723 ± 260
303.15 K, x1 = 0.7573 | 1223.6 ± 1.9 | –
303.15 K, x1 = 0.8256 | 1224.8 ± 2.1 | –
308.15 K, x1 = 0.0933 | 1122.6 ± 1 | –
308.15 K, x1 = 0.1688 | 1163.7 ± 1 | 13.9 ± 1.4
308.15 K, x1 = 0.2209 | 1179.6 ± 1 | 25.8 ± 2.6
308.15 K, x1 = 0.288 | 1192.8 ± 1.1 | 52.3 ± 5.3
308.15 K, x1 = 0.3907 | 1204.5 ± 1.1 | 158 ± 17
308.15 K, x1 = 0.4809 | 1210.7 ± 1.2 | 339 ± 40
308.15 K, x1 = 0.5793 | 1215.1 ± 1.4 | 678 ± 88
308.15 K, x1 = 0.6669 | 1217.9 ± 1.6 | 1151 ± 160
308.15 K, x1 = 0.7573 | 1220.2 ± 1.9 | 1866 ± 280
308.15 K, x1 = 0.8256 | 1221.5 ± 2.1 | –
313.15 K, x1 = 0.0933 | 1119.5 ± 1 | –
313.15 K, x1 = 0.1688 | 1160.4 ± 1 | 11.3 ± 1.1
313.15 K, x1 = 0.2209 | 1176.2 ± 1 | 20.1 ± 2
313.15 K, x1 = 0.288 | 1189.4 ± 1.1 | 40.5 ± 4.1
313.15 K, x1 = 0.3907 | 1201.1 ± 1.1 | 118 ± 12
313.15 K, x1 = 0.4809 | 1207.3 ± 1.2 | 250 ± 28
313.15 K, x1 = 0.5793 | 1211.8 ± 1.4 | 496 ± 61
313.15 K, x1 = 0.6669 | 1214.6 ± 1.6 | 838 ± 110
313.15 K, x1 = 0.7573 | 1216.9 ± 1.9 | 1354 ± 190
313.15 K, x1 = 0.8256 | 1218.2 ± 2.1 | 1882 ± 280
318.15 K, x1 = 0.0933 | 1116.4 ± 1 | –
318.15 K, x1 = 0.1688 | 1157 ± 1 | 9.61 ± 0.97
318.15 K, x1 = 0.2209 | 1172.8 ± 1 | 16.8 ± 1.7
318.15 K, x1 = 0.288 | 1186 ± 1.1 | 32 ± 3.2
318.15 K, x1 = 0.3907 | 1197.7 ± 1.1 | 85.6 ± 8.8
318.15 K, x1 = 0.4809 | 1204 ± 1.2 | 174 ± 19
318.15 K, x1 = 0.5793 | 1208.5 ± 1.4 | 334 ± 39
318.15 K, x1 = 0.6669 | 1211.2 ± 1.6 | 555 ± 70
318.15 K, x1 = 0.7573 | 1213.7 ± 1.8 | 884 ± 120
318.15 K, x1 = 0.8256 | 1214.9 ± 2.1 | 1219 ± 170
323.15 K, x1 = 0.0933 | 1113.2 ± 1 | –
323.15 K, x1 = 0.1688 | 1153.6 ± 1 | 8.15 ± 0.82
323.15 K, x1 = 0.2209 | 1169.4 ± 1 | 13.9 ± 1.4
323.15 K, x1 = 0.288 | – | 25.5 ± 2.6
323.15 K, x1 = 0.3907 | – | 65.4 ± 6.6
323.15 K, x1 = 0.4809 | – | 130 ± 14
323.15 K, x1 = 0.5793 | – | 246 ± 28
323.15 K, x1 = 0.6669 | – | 405 ± 49
323.15 K, x1 = 0.7573 | – | 642 ± 82
323.15 K, x1 = 0.8256 | – | 882 ± 120
